Structures are written as SMILES.

This assay has as its system blood-glucose concentration. The experiment in a line: Decrease in blood-glucose concentration in rats after oral dose (Table 1; ED30 rats Table 2). The class given is in vivo. The settings on record: Rattus norvegicus, po; for inhibition in vivo at 0.25 mg/kg: p.os. 0.25 mg/kg; for inhibition in vivo at 0.5 mg/kg: p.os. 0.5 mg/kg; for inhibition in vivo at 1 mg/kg: p.os. 1 mg/kg; for inhibition in vivo at 2 mg/kg: p.os. 2 mg/kg; for inhibition in vivo at 4 mg/kg: p.os. 4 mg/kg; for inhibition in vivo at 10 mg/kg: p.os. 10 mg/kg; for ED50: p.os., Table 1; for inhibition in vivo at 50 mg/kg: p.os. 50 mg/kg. An excerpt:
The hypoglycemic activity of N-{4-[2-(pyrazole-1-carbonamide)-ethyl]-benzenesulphonyl}-ureas prepared according to the present invention can be noticed after their oral administration to mice, rats, rabbits and people and when determining the glucose concentration in blood with a known enzymatic method using glucose oxidase.
The exemplary comparison of effective doses (ED30) and the effect of oral dose size of the compounds prepared according to the present invention with Glibornuride, which is distinguished by its high effectiveness and good tolerance when administered to people, on the glucose concentration in the blood of rats, is given in Table 1.

With `O=C(NC1CCCCC1)NS(=O)(=O)c1ccc(CCNC(=O)n2cccn2)cc1` [compound 1], the ED50 stood at 1.8 mg/kg. Under “1 h”, this molecule displayed an inhibition in vivo at 0.25 mg/kg of 12%, an inhibition in vivo at 0.5 mg/kg of 21%, an inhibition in vivo at 1 mg/kg of 27% and an inhibition in vivo at 2 mg/kg of 23%. For the setting “1 h”, this molecule gave an inhibition in vivo at 4 mg/kg of 19% and an inhibition in vivo at 10 mg/kg of 50%. Under “3 h”, this molecule gave an inhibition in vivo at 0.25 mg/kg of 19%, an inhibition in vivo at 0.5 mg/kg of 19%, an inhibition in vivo at 1 mg/kg of 27% and an inhibition in vivo at 2 mg/kg of 34%. For the setting “3 h”, testing at 4 mg/kg gave an inhibition in vivo of 37% and the inhibition in vivo at 10 mg/kg stood at 52%. Also, under “6 h”, the inhibition in vivo at 0.25 mg/kg stood at 0%, testing at 0.5 mg/kg gave an inhibition in vivo of 11%, 1 mg/kg produced 14% inhibition in vivo and the inhibition in vivo at 2 mg/kg is 11%. Moreover, the inhibition in vivo at 10 mg/kg (6 h) amounted to 29%.
With `Cc1ccn(C(=O)NCCc2ccc(S(=O)(=O)NC(=O)NC3CCCCC3)cc2)n1` [compound 2], the ED50 came to 2.2 mg/kg. Under “1 h”, this molecule returned an inhibition in vivo at 1 mg/kg of 19%, an inhibition in vivo at 2 mg/kg of 23% and an inhibition in vivo at 4 mg/kg of 30%. Where the note is “3 h”, this molecule registered an inhibition in vivo at 1 mg/kg of 9%, an inhibition in vivo at 2 mg/kg of 27% and an inhibition in vivo at 4 mg/kg of 45%. Moreover, for the setting “6 h”, at 1 mg/kg the inhibition in vivo was 0%, 2 mg/kg produced 14% inhibition in vivo and the inhibition in vivo at 4 mg/kg turned out to be 21%.
Molecule `Cc1cnn(C(=O)NCCc2ccc(S(=O)(=O)NC(=O)NC3CCCCC3)cc2)c1` [compound 3] came in with an ED50 of 1.9 mg/kg. Besides, where the note is “1 h”, the inhibition in vivo at 1 mg/kg is 20%, the inhibition in vivo at 2 mg/kg was 35%, the inhibition in vivo at 4 mg/kg came out at 33% and at 10 mg/kg the inhibition in vivo was 52%. In addition, for the setting “3 h”, the inhibition in vivo at 1 mg/kg is 18%, the inhibition in vivo at 2 mg/kg was determined as 28%, the inhibition in vivo at 4 mg/kg came to 32% and the inhibition in vivo at 10 mg/kg is 48%. In addition, for the setting “6 h”, the inhibition in vivo at 1 mg/kg worked out at 4%, the inhibition in vivo at 2 mg/kg was found to be 2% and the inhibition in vivo at 10 mg/kg was determined as 37%.
Regarding `CCc1cnn(C(=O)NCCc2ccc(S(=O)(=O)NC(=O)NC3CCCCC3)cc2)c1` [compound 4], the ED50 worked out at 1.6 mg/kg. For the same molecule, for the setting “1 h”, the inhibition in vivo at 1 mg/kg stood at 28%, the inhibition in vivo at 2 mg/kg came out at 46%, the inhibition in vivo at 4 mg/kg came out at 40% and 10 mg/kg produced 55% inhibition in vivo. Where the note is “3 h”, this molecule showed an inhibition in vivo at 1 mg/kg of 4%, an inhibition in vivo at 2 mg/kg of 18%, an inhibition in vivo at 4 mg/kg of 32% and an inhibition in vivo at 10 mg/kg of 39%. Where the note is “6 h”, this molecule showed an inhibition in vivo at 1 mg/kg of 0%, an inhibition in vivo at 2 mg/kg of 1% and an inhibition in vivo at 10 mg/kg of 25%.
As for `O=C(NC1CCCCC1)NS(=O)(=O)c1ccc(CCNC(=O)n2cc(Cl)cn2)cc1` [compound 5], the inhibition in vivo at 10 mg/kg (1 h) turned out to be 16% and at 10 mg/kg the inhibition in vivo (3 h) was 0%. Besides, the inhibition in vivo at 50 mg/kg amounted to 38% (1 h), 36% (3 h) and 12% (6 h).
The molecule `Cc1cc(C)n(C(=O)NCCc2ccc(S(=O)(=O)NC(=O)NC3CCCCC3)cc2)n1` [compound 6] displayed an ED50 of 3.5 mg/kg. Where the note is “1 h”, this molecule registered an inhibition in vivo at 4 mg/kg of 18% and an inhibition in vivo at 10 mg/kg of 23%. Where the note is “3 h”, this molecule displayed an inhibition in vivo at 4 mg/kg of 33% and an inhibition in vivo at 10 mg/kg of 40%. Where the note is “6 h”, this molecule displayed an inhibition in vivo at 4 mg/kg of 23% and an inhibition in vivo at 10 mg/kg of 35%.
Consider `Cc1cn(C(=O)NCCc2ccc(S(=O)(=O)NC(=O)NC3CCCCC3)cc2)nc1C` [compound 7], for which the 50% effect level (ED50) was put at a dose of 3.3 mg/kg. Under “1 h”, this molecule came in with an inhibition in vivo at 0.25 mg/kg of 11%, an inhibition in vivo at 0.5 mg/kg of 19%, an inhibition in vivo at 2 mg/kg of 18% and an inhibition in vivo at 10 mg/kg of 37%. For the setting “3 h”, this molecule gave an inhibition in vivo at 0.25 mg/kg of 17%, an inhibition in vivo at 0.5 mg/kg of 29%, an inhibition in vivo at 2 mg/kg of 24% and an inhibition in vivo at 10 mg/kg of 54%. Besides, where the note is “6 h”, the inhibition in vivo at 0.25 mg/kg turned out to be 11%, the inhibition in vivo at 0.5 mg/kg was determined as 20%, the inhibition in vivo at 2 mg/kg amounted to 19% and the inhibition in vivo at 10 mg/kg came out at 26%.
Consider `CCc1nn(C(=O)NCCc2ccc(S(=O)(=O)NC(=O)NC3CCCCC3)cc2)cc1C` [compound 8], for which it took a dose of 4 mg/kg to reach the 50% effect level (ED50). Under “1 h”, this molecule gave an inhibition in vivo at 1 mg/kg of 17%, an inhibition in vivo at 4 mg/kg of 19% and an inhibition in vivo at 10 mg/kg of 27%. Under “3 h”, this molecule displayed an inhibition in vivo at 1 mg/kg of 18%, an inhibition in vivo at 4 mg/kg of 31% and an inhibition in vivo at 10 mg/kg of 45%. Moreover, for the setting “6 h”, 1 mg/kg produced 15% inhibition in vivo, the inhibition in vivo at 4 mg/kg amounted to 15% and the inhibition in vivo at 10 mg/kg amounted to 25%.
On to `Cc1nn(C(=O)NCCc2ccc(S(=O)(=O)NC(=O)NC3CCCCC3)cc2)cc1Cl` [compound 9], for which the inhibition in vivo at 10 mg/kg was determined as 24% (1 h), 7% (3 h) and 0% (6 h).
With `Cc1nn(C(=O)NCCc2ccc(S(=O)(=O)NC(=O)NC3CCCCC3)cc2)c(C)c1C` [compound 10], the 50% effect level (ED50) was put at a dose of 4 mg/kg. For the same molecule, under “1 h”, the inhibition in vivo at 4 mg/kg amounted to 24%, the inhibition in vivo at 10 mg/kg stood at 35% and the inhibition in vivo at 50 mg/kg was 48%. Further, for the setting “3 h”, testing at 4 mg/kg gave an inhibition in vivo of 35%, the inhibition in vivo at 10 mg/kg came out at 49% and 50 mg/kg produced 62% inhibition in vivo. Under “6 h”, this molecule had an inhibition in vivo at 4 mg/kg of 28%, an inhibition in vivo at 10 mg/kg of 17% and an inhibition in vivo at 50 mg/kg of 52%.
Molecule `CCc1c(C)nn(C(=O)NCCc2ccc(S(=O)(=O)NC(=O)NC3CCCCC3)cc2)c1C` [compound 11] came in with an ED50 of 4.8 mg/kg. Under “1 h”, this molecule returned an inhibition in vivo at 4 mg/kg of 16%, an inhibition in vivo at 10 mg/kg of 29% and an inhibition in vivo at 50 mg/kg of 57%. Moreover, for the setting “3 h”, the inhibition in vivo at 4 mg/kg worked out at 27%, the inhibition in vivo at 10 mg/kg is 53% and the inhibition in vivo at 50 mg/kg came out at 60%. Where the note is “6 h”, this molecule gave an inhibition in vivo at 4 mg/kg of 3% and an inhibition in vivo at 50 mg/kg of 53%.
Turning to `CCCc1c(C)nn(C(=O)NCCc2ccc(S(=O)(=O)NC(=O)NC3CCCCC3)cc2)c1C` [compound 12], the inhibition in vivo at 10 mg/kg runs as follows: (1 h) 14%; (6 h) 10%. The inhibition in vivo at 50 mg/kg is, setting by setting: (1 h) 22%; (3 h) 39%; (6 h) 32%.
For the setting “1 h”, `CCCCc1c(C)nn(C(=O)NCCc2ccc(S(=O)(=O)NC(=O)NC3CCCCC3)cc2)c1C` [compound 13] displayed an inhibition in vivo at 10 mg/kg of 0%. The inhibition in vivo at 50 mg/kg came out at 18% (1 h), 27% (3 h) and 3% (6 h).

(Values after patent US4153710A, “N-(4-[2-(pyrazole-1-carbonamide)-ethyl]-benzenesulphonyl)-urea” (Starogardzkie Zaklady Farmaceutyczne POLFA, priority 1976, dated 1979).)
